This is an account of results in patent US20070265170A1, “DETECTION, PREVENTION AND TREATMENT OF OVARIAN CANCER” (priority 2006, published 2007).

One assay has as its system β3GlcNAcT. Description: β3GlcNAcT acceptor specificity. To be noted: acceptor substrate; lactose (4) = 100%.
The subject of assay [1] is anti-carbohydrate antibodies in sera of metastatic breast cancer patients. Put plainly: Glycan array with sera of metastatic breast cancer patients. It counts as binding, human. To be noted: sera diluted 1:25; for binding by antibodies from metastatic breast cancer patients: 9 MBC patients; for level of serum antibodies against the glycan in MBC patients compared to healthy individuals: relative fluorescence, FIG. 8-9. As for the experimental part: Individual (not pooled) sera were collected from 9 patients who were diagnosed with metastatic breast cancer (MBC). Blood samples were collected before treatment, so that therapeutic intervention would not interfere with patient immune responses. One patient with breast cancer but with good prognosis (IDC, Stage 1) was also included in the study. As control, or “healthy” sera, sera from ten healthy individuals, 5 female and 5 male, with no known malignancies was collected.
Sera were diluted 1:25 with PBS containing 3% BSA, and placed on the glycan array slide in humidified chamber at room temperature for 90 min. The glycan array slide was then rinsed gently with PBS/0.05% Tween, incubated with biotinylated goat antibody against human IgG, IgM and IgA, rinsed in PBS/0.05% Tween, and incubated with streptavidin-Alexa488 fluorescent dye. Following rinses in PBS/0.05% Tween and H2O, glycan array slides were dried and scanned using the commercial DNA array scanner. […] Signal to background was typically greater 50:1 and no background subtractions were performed. Data were plotted using MS Excel software.

In assay [2] the test system is Human anti-HIV 2G12 monoclonal antibody. Description: Glycan array binding of 2G12. To be noted: 2G12 30 μg/mL pre-complexed with goat anti-human-IgG-FITC. From the text: Glycan array fabrication.
Glycan Binding Protein binding assay.
Image acquisition and signal processing. […] Data were plotted using MS Excel software.

The next assay concerns the target T1, chicken ST6GalNAc-I (Gallus gallus, UniProt Q92183).
T1 construct: made in house; host or cells: insect cells
Description: chST6GalNAc-I activity on small acceptor molecules. It counts as biochemical. To be noted: α-D-galacto derivatives as acceptors. An excerpt:
The inventors have previously reported the cloning, expression, and characterization of chicken ST6GalNAc-I and its use in preparative synthesis of the O-linked sialoside antigens, STn-, α(2-6)SiaT-, α(2-3)SiaT- and Di-SiaT-antigen. Blixt, O.; Allin, K.; Pereira, L.; Datta, A. and Paulson, J. C., J. Am. Chem. Soc. 2002, 124, 5739-5746. Briefly, the recombinant enzyme was expressed in insect cells and purified by CDP-sepharose affinity chromatography to generate approximately 10 U/L of cell culture.

T1 sequence (Q92183 whole entry): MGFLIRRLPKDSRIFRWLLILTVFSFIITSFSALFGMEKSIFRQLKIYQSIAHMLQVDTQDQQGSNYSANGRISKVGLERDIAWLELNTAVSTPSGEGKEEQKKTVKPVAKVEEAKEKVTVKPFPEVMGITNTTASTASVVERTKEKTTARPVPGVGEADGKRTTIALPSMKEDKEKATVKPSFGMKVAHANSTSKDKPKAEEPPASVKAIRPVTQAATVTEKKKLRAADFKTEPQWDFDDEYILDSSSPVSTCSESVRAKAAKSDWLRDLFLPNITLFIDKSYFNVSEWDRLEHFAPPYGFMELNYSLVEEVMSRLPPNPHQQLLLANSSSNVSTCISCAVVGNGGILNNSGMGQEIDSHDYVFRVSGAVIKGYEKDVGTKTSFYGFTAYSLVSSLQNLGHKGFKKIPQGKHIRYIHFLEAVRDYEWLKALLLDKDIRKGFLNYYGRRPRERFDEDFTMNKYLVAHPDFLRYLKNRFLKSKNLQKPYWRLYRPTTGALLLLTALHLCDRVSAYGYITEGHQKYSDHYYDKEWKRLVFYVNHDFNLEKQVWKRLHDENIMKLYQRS

Regarding `OCC1O[C@@H](O)C(O)[C@@H](O)[C@@H]1O[C@@H]1OC(CO)[C@H](O)[C@H](O)C1O` (stereo partly drawn) [Compound 4], in the assay with β3GlcNAcT, the “Relative enzyme activity (%) β(1-3)GlcNAcT-activity” value turned out to be 100%. For the molecule Ab3ANb4[NNa3]Ab4Gb#sp1 GM1 [Glycan 58], in assay [1], the “binding by antibodies from metastatic breast cancer patients” value (shortened to “binding by antibodies”) is reported as “bind” and the “level of serum antibodies against the glycan in MBC patients compared to healthy individuals” value (“level … compared to healthy individuals” for short) is given as “higher than in the healthy individuals”. In the case of Man-9#aa Man9-aminoacid [Glycan 145], the “2G12 binding to arrayed glycan” value in assay [2] is on record as “smaller level of binding”. For the molecule GNb3Ab4Gb#sp1 LNT-2 [Glycan 123], in assay [1], the “binding by antibodies” value is given as “bind” and the “level … compared to healthy individuals” value was “higher than in the healthy individuals”. As for “NJa6ANa#sp2 Neu5Gc6GalNAc (STn) [Glycan 155]”, the “binding by antibodies” value in assay [1] is on record as “bind”. For the molecule “Fa2Ab3Anb3Aa4Ab4G#sp3 Globo-H [Glycan 97]”, in assay [1], the “binding by antibodies” value was “bind” and the “level … compared to healthy individuals” value is “higher than in the healthy individuals”. Regarding `CC(=O)N[C@H]1C(O)O[C@H](CO)[C@H](O)[C@@H]1O` (stereo partly drawn) [D-GalNAc], at chicken ST6GalNAc-I, the “chST6GalNac-I Activity, cpm” value stood at 0 cpm and the “chST6GalNac-I Activity, nmol/mg × min^−1” value came to 0.00 nmol/mg × min^−1. For the molecule NNa6ANa#sp2 6SiaβGalNAc [Glycan 190], in assay [1], the “binding by antibodies” value is reported as “bind” and the “level … compared to healthy individuals” value is “significantly higher levels”.

B1: Ceruloplasmine (protein, UniProt P00450 20-1065, looked up)
Ceruloplasmin: KEKHYYIGIIETTWDYASDHGEKKLISVDTEHSNIYLQNGPDRIGRLYKKALYLQYTDETFRTTIEKPVWLGFLGPIIKAETGDKVYVHLKNLASRPYTFHSHGITYYKEHEGAIYPDNTTDFQRADDKVYPGEQYTYMLLATEEQSPGEGDGNCVTRIYHSHIDAPKDIASGLIGPLIICKKDSLDKEKEKHIDREFVVMFSVVDENFSWYLEDNIKTYCSEPEKVDKDNEDFQESNRMYSVNGYTFGSLPGLSMCAEDRVKWYLFGMGNEVDVHAAFFHGQALTNKNYRIDTINLFPATLFDAYMVAQNPGEWMLSCQNLNHLKAGLQAFFQVQECNKSSSKDNIRGKHVRHYYIAAEEIIWNYAPSGIDIFTKENLTAPGSDSAVFFEQGTTRIGGSYKKLVYREYTDASFTNRKERGPEEEHLGILGPVIWAEVGDTIRVTFHNKGAYPLSIEPIGVRFNKNNEGTYYSPNYNPQSRSVPPSASHVAPTETFTYEWTVPKEVGPTNADPVCLAKMYYSAVEPTKDIFTGLIGPMKICKKGSLHANGRQKDVDKEFYLFPTVFDENESLLLEDNIRMFTTAPDQVDKEDEDFQESNKMHSMNGFMYGNQPGLTMCKGDSVVWYLFSAGNEADVHGIYFSGNTYLWRGERRDTANLFPQTSLTLHMWPDTEGTFNVECLTTDHYTGGMKQKYTVNQCRRQSEDSTFYLGERTYYIAAVEVEWDYSPQREWEKELHHLQEQNVSNAFLDKGEFYIGSKYKKVVYRQYTDSTFRVPVERKAEEEHLGILGPQLHADVGDKVKIIFKNMATRPYSIHAHGVQTESSTVTPTLPGETLTYVWKIPERSGAGTEDSACIPWAYYSTVDQVKDLYSGLIGPLIVCRRPYLKVFNPRRKLEFALLFLVFDENESWYLDDNIKTYSDHPEKVNKDDEEFIESNKMHAINGRMFGNLQGLTMHVGDEVNWYLMGMGNEIDLHTVHFHGHSFQYKHRGVYSSDVFDIFPGTYQTLEMFPRTPGIWLLHCHVTDHIHAGMETTYTVLQNEDTKSG
Regarding B1, in assay [1], the “binding by antibodies” value is on record as “bind” and the “level … compared to healthy individuals” value was “significantly higher levels”.
